Experimental data reported in patent publication US11667621B2, “Antiestrogen compounds” (STEVENS INSTITUTE OF TECHNOLOGY, priority 2018, dated 2023).
Residue numbers refer to the chain shown, from its start.

What was measured:
Assay type in all cases: cell-based
CRISPR KI D538G = target: T1, CRISPR KI D538G (Homo sapiens, UniProt P03372, D538G); assay: Luciferase assay, CRISPR KI D538G clones; details: for CRISPR KI (% Inhibition) D538G cl. 50: clone 50; for CRISPR KI (% Inhibition) D538G cl. 65: clone 65
T1 construct: endogenous in cells; host or cells: CRISPR knock-in clones (cl. 50, cl. 65)
T1 sequence (P03372 1-595 D538G): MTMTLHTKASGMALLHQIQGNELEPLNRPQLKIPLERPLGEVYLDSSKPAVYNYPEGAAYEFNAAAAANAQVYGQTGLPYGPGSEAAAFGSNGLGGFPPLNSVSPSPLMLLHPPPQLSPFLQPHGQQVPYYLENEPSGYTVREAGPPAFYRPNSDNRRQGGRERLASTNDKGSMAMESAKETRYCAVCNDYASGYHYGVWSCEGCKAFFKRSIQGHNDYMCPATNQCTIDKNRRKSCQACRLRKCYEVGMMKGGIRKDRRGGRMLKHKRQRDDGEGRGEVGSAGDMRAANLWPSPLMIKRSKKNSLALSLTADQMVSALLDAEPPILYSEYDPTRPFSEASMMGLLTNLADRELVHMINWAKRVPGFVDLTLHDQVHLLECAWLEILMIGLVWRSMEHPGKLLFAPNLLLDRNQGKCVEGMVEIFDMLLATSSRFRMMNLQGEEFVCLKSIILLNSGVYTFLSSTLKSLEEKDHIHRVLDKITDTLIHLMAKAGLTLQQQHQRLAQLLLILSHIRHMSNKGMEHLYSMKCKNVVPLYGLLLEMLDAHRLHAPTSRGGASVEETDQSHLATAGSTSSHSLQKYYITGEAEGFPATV
Method: (§1) Luciferase assays were performed to determine the efficacy of the example compounds at inhibiting ER or its mutants' ability to activate transcription of genes.
(§2) Cells were plated at a density of 0.15×10^6 per well of 24 well plates one day prior to transfection. Cells were transfected with 125 ng (per well) of HA-ERα wild type or mutants, 315 ng (per well) of 3×-ERE-TATA-Luciferase reporter and 50 ng (per well) of pRL-TK Renilla Luciferase plasmid, using Xtremegene (Roche). The cells were treated with the various compounds or Fulvestrant at the indicated doses a day after transfection for 24 hours and luciferase activities were determined using the Dual-Luciferase® Reporter Assay System (Promega) according to manufacturer's instructions. Luciferase bioluminescence measurements were performed with the Veritas™ Microplate Luminometer (Promega). All experiments were conducted in triplicate and the Firefly luciferase activity was normalized with the Renilla luciferase activity of each sample.

HA-ERα L536R = target: T2, HA-ERα L536R (Homo sapiens, UniProt P03372, L536R); assay: Luciferase assay, overexpressed ER (3×-ERE-TATA-Luciferase reporter); details: compound concentration 1 μM, 24 hours
T2 construct: HA; expressed in transfected cells
T2 sequence (P03372 1-595 L536R): T1 sequence (P03372 1-595 D538G) with L536R, G538D
Procedure, shortened: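 Cells transfected with HA-ERα wild type or mutant, 3×-ERE-TATA firefly luciferase reporter and pRL-TK Renilla, then treated one day later with compound for 24 h.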

[1] = Cell proliferation assay (WST-1), 6-day exposure; details: 144 h, read-out: Antiproliferation IC50
Method: Cell proliferation assay: WST-1 assay (Roche, Basel, Switzerland) was used to quantify cell viability after a 6-day exposure to compounds, as described in Gong et al. Mol. Cell. Endocrinol. 2016, 437, 190-200. Absorbance was measured at 450 nm using a VICTOR X5 PerkinElmer 2030 Multilabel Plate Reader, and cell proliferation values represent signal from compound-treated samples relative to vehicle-treated controls. All assays were performed in triplicate, and the values shown are the average SD of 2-3 independent experiments.

CRISPR KI Y537S = target: T3, CRISPR KI Y537S (Homo sapiens, UniProt P03372, Y537S); assay: Luciferase assay, CRISPR KI Y537S clones; design: concentration or dose not given beside the values; details: for CRISPR KI (% Inhibition) Y537S cl. 24: clone 24; for CRISPR KI (% Inhibition) Y537S cl. 4: clone 4
T3 construct: endogenous in cells; host or cells: CRISPR knock-in clones (cl. 4, cl. 24)
T3 sequence (P03372 1-595 Y537S): T1 sequence (P03372 1-595 D538G) with Y537S, G538D
Method: as §1, §2

Structure (SMILES) | CRISPR KI (% Inhibition) D538G cl. 50 (CRISPR KI D538G) | CRISPR KI (% Inhibition) D538G cl. 65 (CRISPR KI D538G) | inhibition at 1 µM (HA-ERα L536R) | IC50 [1] | CRISPR KI (% Inhibition) Y537S cl. 24 (CRISPR KI Y537S) | CRISPR KI (% Inhibition) Y537S cl. 4 (CRISPR KI Y537S)
O=C(NCCCCOc1ccc(C(=C2C3CC4CC(C3)CC2C4)c2ccc(O)cc2)cc1)C1CCC1 [Example 10, N-(4-(4-(Adamantan-2-ylidene(4-hydroxyphenyl)methyl)phenoxy)butyl)-cyclobutanecarboxamide] | 19% | 65% | 78% | 3 nM | −496% | 
O=C(NCCCCOc1ccc(C(=C2C3CC4CC(C3)CC2C4)c2ccc(O)cc2)cc1)C1CCC(F)(F)CC1 [Example 13, N-(4-(4-(Adamantan-2-ylidene(4-hydroxyphenyl)methyl)phenoxy)butyl)-4,4-difluorocyclohexanecarboxamide] | 32% | 77% | 90% | 4 nM | −327% | −334%
O=C(NCCCCOc1ccc(C(=C2C3CC4CC(C3)CC2C4)c2ccc(O)cc2)cc1)C1CCCCCC1 [Example 12, N-(4-(4-(Adamantan-2-ylidene(4-hydroxyphenyl)methyl)phenoxy)butyl)-cycloheptanecarboxamide] | 36% | 80% | 87% | 5 nM | −199% | −232%
O=C(NCCCCOc1ccc(C(=C2C3CC4CC(C3)CC2C4)c2ccc(O)cc2)cc1)C12CC3CC(CC(C3)C1)C2 [Example 6, N-(4-(4-(Adamantan-2-ylidene(4-hydroxyphenyl)methyl)phenoxy)-butyl)adamantane-1-carboxamide] | 68% | 73% | 70% | 13 nM | −108% | −187%
O=C(NCCCCOc1ccc(C(=C2C3CC4CC(C3)CC2C4)c2ccc(O)cc2)cc1)[C@H]1C[C@@H]2C=C[C@H]1C2 [Example 9, (1R, 2S, 4R)—N-(4-(4-(Adamantan-2-ylidene(4-hydroxyphenyl)methyl)phenoxy)-butyl)bicyclo[2.2.1]hept-5-ene-2-carboxamide] | 34% | 72% | 89% | 9 nM | −384% | −369%
O=C(NCCCCOc1ccc(C(=C2C3CC4CC(C3)CC2C4)c2ccc(O)cc2)cc1)[C@H]1CC[C@H](C(F)(F)F)CC1 [Example 14, (trans)-N-(4-(4-(Adamantan-2-ylidene(4-hydroxyphenyl)methyl)phenoxy)-butyl)-4-(trifluoromethyl)cyclohexanecarboxamide] | 67% | 73% | 82% | 0.5 nM | −421% | −342%
O=C(NCCCCOc1ccc(C(=C2C3CC4CC(C3)CC2C4)c2ccc(O)cc2)cc1)C1CCCCC1 [Example 11, N-(4-(4-(Adamantan-2-ylidene(4-hydroxyphenyl)methyl)phenoxy)butyl)-cyclohexanecarboxamide] | 74% | 84% | 79% | 0.6 nM | −10% | −62%
CC12CC3CC(C)(C1)CC(C(=O)NCCCCOc1ccc(C(=C4C5CC6CC(C5)CC4C6)c4ccc(O)cc4)cc1)(C3)C2 [Example 7, N-(4-(4-(Adamantan-2-ylidene(4-hydroxyphenyl)methyl)phenoxy)butyl)-3,5-dimethyladamantane-1-carboxamide] | 15% | 44% | 77% | 5 nM | −64% | −70%
CC(C)(C)OC(=O)N[C@@H](Cc1c[nH]c2ccccc12)C(=O)NCCCCOc1ccc(C(=C2C3CC4CC(C3)CC2C4)c2ccc(O)cc2)cc1 [Example 1, (S)-tert-Butyl (1-((4-(4-(adamantan-2-ylidene(4-hydroxyphenyl)methyl)-phenoxy)butyl)amino)-3-(1H-indol-3-yl)-1-oxopropan-2-yl)carbamate] | 15% | 71% | 70% | 16 nM | −34% | −74%
O=C(NCCCCOc1ccc(C(=C2C3CC4CC(C3)CC2C4)c2ccc(O)cc2)cc1)C12CC3CC(CC1C3)C2 [Example 8, N-(4-(4-((Adamantan-2-ylidene)(4-hydroxyphenyl)methyl)phenoxy)butyl)-hexahydro-2,5-methanopentalene-3a(1H)-carboxamide] | 39% | 78% | 84% | 12 nM | −249% | −387%
